The text below walks through data of ChEMBL document CHEMBL2363022, “Malaria Box Schistosomiasis Screening Data” (2013).

What all share (format): functional
Design in all cases: scale not given here

Experiment [1] concerns Schistosoma mansoni.
For experiment [2], the system named is Schistosoma mansoni. This is another data set of the same source.
Experiment [3] concerns Schistosoma mansoni. This is another data set of the same source.

Consider `CCCn1c(=N)c(C(=O)NC2CCCCC2)cc2c(=O)n3cccc(C)c3nc21`, for which the Toxicity with Schistosoma mansoni [1], with Schistosoma mansoni [2] and in the experiment on Schistosoma mansoni [3] was 0 each time.

`O=C(NCC1Cc2cccc(-c3ccncc3)c2O1)c1csc2c1CCCC2` (centres undefined): the Toxicity in the experiment with Schistosoma mansoni [1], in the experiment with Schistosoma mansoni [2] and in the experiment with Schistosoma mansoni [3] was 0 in each case.

With `c1ccc2c(NCCc3c[nH]c4ccccc34)c3ccccc3nc2c1`, the Toxicity in the experiment with Schistosoma mansoni [1] is 3; with Schistosoma mansoni [2], 4; with Schistosoma mansoni [3], 4.

As for `O=C(NC1CCN(Cc2ccccc2)CC1)c1cc(C(=O)NC2CCN(Cc3ccccc3)CC2)cc(C(=O)NC2CCN(Cc3ccccc3)CC2)c1`, the Toxicity in the experiment on Schistosoma mansoni [1], with Schistosoma mansoni [2] and in the experiment on Schistosoma mansoni [3] was 0 each time.

For `O=C(CCc1ccccc1)c1ccccc1OCC(O)CN1CCCCC1` (centres undefined), the Toxicity in the experiment with Schistosoma mansoni [1] worked out at 1; with Schistosoma mansoni [2] it was 0; in the experiment on Schistosoma mansoni [3] it was 4.

`Cc1cc(Nc2ccc(C)c(Cl)c2)n2nc(C(F)(F)F)nc2n1`: the Toxicity in the experiment with Schistosoma mansoni [1], in the experiment with Schistosoma mansoni [2] and in the experiment with Schistosoma mansoni [3] was 0 throughout.

Regarding `COc1ccc(C=C2SC(Nc3ccc(F)cc3)=NC2=O)c(OC)c1`, the Toxicity in the experiment on Schistosoma mansoni [1], in the experiment with Schistosoma mansoni [2] and in the experiment with Schistosoma mansoni [3] was 0 in each case.

`CCCCNCC(O)(c1ccc(Cl)cc1)c1ccc(Cl)cc1`: the Toxicity with Schistosoma mansoni [1], with Schistosoma mansoni [2] and with Schistosoma mansoni [3] was 0 in each case.

Take `CCN(CC)CCCNc1ccnc2cc3ccccc3cc12`: the Toxicity in the experiment with Schistosoma mansoni [1], with Schistosoma mansoni [2] and with Schistosoma mansoni [3] was 2 in each case.

As for `CCOC(=O)C1=C(C)N=c2sc(=Cc3ccccc3O)c(=O)n2C1c1ccc(OC)c2ccccc12` (centres undefined), the values for the Toxicity with Schistosoma mansoni [1], with Schistosoma mansoni [2] and in the experiment on Schistosoma mansoni [3] were 0, 0 and 4, respectively.

In the case of `CCC(=O)Nc1nnc(Cc2ccc(OC)c(OC)c2)s1`, the Toxicity in the experiment on Schistosoma mansoni [1], in the experiment with Schistosoma mansoni [2] and in the experiment on Schistosoma mansoni [3] was 0 throughout.

With `c1ccc(/C2=N/c3ccccc3/N=C(/c3ccccc3)c3ccccc32)cc1`, the Toxicity in the experiment with Schistosoma mansoni [1], in the experiment on Schistosoma mansoni [2] and with Schistosoma mansoni [3] was 1 throughout.

`COc1ccccc1CNC(=O)C1c2ccccc2C(=O)N(CC(C)C)C1c1cccs1` (centres undefined): the Toxicity in the experiment on Schistosoma mansoni [1], in the experiment with Schistosoma mansoni [2] and with Schistosoma mansoni [3] was 0 in each case.

Consider `Cc1ccc2c(C)nc(Nc3nc(C)cc(-c4ccccc4)n3)nc2c1`, for which the Toxicity in the experiment with Schistosoma mansoni [1], with Schistosoma mansoni [2] and in the experiment on Schistosoma mansoni [3] was 0 throughout.

Consider `O=C(NC1CCCCC1)C(c1cccs1)N(CCc1ccccc1)C(=O)c1ccco1` (centres undefined), for which the Toxicity in the experiment with Schistosoma mansoni [1], with Schistosoma mansoni [2] and with Schistosoma mansoni [3] was 0 each time.

`Cc1cc(C)cc(Nc2cc(C)nc3nc(C(F)(F)F)nn23)c1`: the Toxicity in the experiment on Schistosoma mansoni [1], with Schistosoma mansoni [2] and in the experiment on Schistosoma mansoni [3] was 0 throughout.

As to `COc1ccc(CCN2C(=O)c3[nH]nc(-c4cc(Cl)c(C)cc4O)c3C2c2ccccc2F)cc1` (centres undefined), the Toxicity in the experiment with Schistosoma mansoni [1], with Schistosoma mansoni [2] and in the experiment with Schistosoma mansoni [3] was 0 each time.

With `FC(F)(F)c1ccc(Nc2nnnc3ccccc23)cc1`, the results for the Toxicity with Schistosoma mansoni [1], with Schistosoma mansoni [2] and in the experiment with Schistosoma mansoni [3] were 1, 0 and 0, respectively.

`COc1ccc(C(=O)C(CCC(CNC(C)(C)C)C(=O)c2ccc(OC)cc2)CNC(C)(C)C)cc1` (centres undefined): the values for the Toxicity in the experiment on Schistosoma mansoni [1], in the experiment with Schistosoma mansoni [2] and with Schistosoma mansoni [3] were 0, 3 and 4, respectively.

With `CCCCc1c(CCC)c(=N)c2ccccc2n1C.I`, the Toxicity in the experiment on Schistosoma mansoni [1], in the experiment with Schistosoma mansoni [2] and with Schistosoma mansoni [3] was 0 each time.

As to `CCOc1ccc(N2C(N)=NC(N)=NC2(C)C)cc1.Cl`, the Toxicity with Schistosoma mansoni [1], in the experiment on Schistosoma mansoni [2] and with Schistosoma mansoni [3] was 0 throughout.

Take `CCN(CC)CCNc1ccnc2cc(Cl)ccc12`: the Toxicity with Schistosoma mansoni [1], in the experiment with Schistosoma mansoni [2] and in the experiment on Schistosoma mansoni [3] was 0 throughout.

As to `COc1ccc(C(=O)NC(c2ccccc2Cl)c2cc(Cl)c3cccnc3c2O)cc1` (centres undefined), the Toxicity in the experiment on Schistosoma mansoni [1] stood at 0; in the experiment on Schistosoma mansoni [2], 2; in the experiment on Schistosoma mansoni [3], 4.

As for `COc1ccc(C=C2SC(=N)N(c3ccccc3OC)C2=O)cc1`, the Toxicity in the experiment on Schistosoma mansoni [1], with Schistosoma mansoni [2] and in the experiment with Schistosoma mansoni [3] was 0 in each case.

For `Oc1ccc2ccccc2c1CNc1nc2ccccc2[nH]1`, the values for the Toxicity with Schistosoma mansoni [1], in the experiment with Schistosoma mansoni [2] and with Schistosoma mansoni [3] were 2, 0 and 0, respectively.

`Cc1sc2ncnc(Sc3nc4ccccc4[nH]3)c2c1C`: the Toxicity with Schistosoma mansoni [1] was found to be 1; with Schistosoma mansoni [2] it was 1; in the experiment with Schistosoma mansoni [3], 0.

On to `Cc1ccc(C2CC(C(F)(F)F)n3nc(C(=O)N4CCN(C(c5ccccc5)c5ccccc5)CC4)cc3N2)cc1` (centres undefined), for which the Toxicity in the experiment with Schistosoma mansoni [1], with Schistosoma mansoni [2] and with Schistosoma mansoni [3] was 0 each time.

Consider `COc1ccc(C(=O)Nc2ccc3nc(N4CCCCC4)cc(C)c3c2)cc1OC`, for which the Toxicity in the experiment with Schistosoma mansoni [1], in the experiment with Schistosoma mansoni [2] and in the experiment with Schistosoma mansoni [3] was 0 in each case.

In the case of `COc1ccc(C)c2sc(N(Cc3cccnc3)C(=O)c3ccc(C#N)cc3)nc12`, the Toxicity in the experiment on Schistosoma mansoni [1], in the experiment with Schistosoma mansoni [2] and in the experiment with Schistosoma mansoni [3] was 0 each time.

Regarding `COc1ccc(Nc2nc(N/N=C/c3ccc(O)cc3)nc(Nc3ccc([N+](=O)[O-])cc3)n2)cc1`, the Toxicity in the experiment on Schistosoma mansoni [1], with Schistosoma mansoni [2] and with Schistosoma mansoni [3] was 0 throughout.

Take `COc1ccccc1CNC(=O)CCn1c(=O)[nH]c2ccccc2c1=O`: the Toxicity in the experiment on Schistosoma mansoni [1], in the experiment with Schistosoma mansoni [2] and with Schistosoma mansoni [3] was 0 each time.

As for `FC(F)(F)c1cccc(Nc2nc3ccccc3nc2Nc2cccc(C(F)(F)F)c2)c1`, the figures for the Toxicity in the experiment on Schistosoma mansoni [1], in the experiment on Schistosoma mansoni [2] and in the experiment with Schistosoma mansoni [3] were 3, 4 and 4, respectively.

`O=C1CC(O)(C(F)(F)C(F)(F)F)Oc2ccccc21` (centres undefined): the Toxicity is listed as 0 in the experiment with Schistosoma mansoni [1], 0 in the experiment on Schistosoma mansoni [2] and 1 with Schistosoma mansoni [3].

Regarding `CCCCCCc1cc(O)c2c3c(c(=O)oc2c1)CCC(C)C3` (centres undefined), the Toxicity is 0 in the experiment on Schistosoma mansoni [1], 2 with Schistosoma mansoni [2] and 0 in the experiment on Schistosoma mansoni [3].

Take `Cc1ccc(-c2cc3c(nn2)-c2ccccc2C3=O)cc1`: the Toxicity with Schistosoma mansoni [1], in the experiment on Schistosoma mansoni [2] and with Schistosoma mansoni [3] was 0 throughout.

Take `Cc1ccc(-c2nc3ccccc3o2)cc1NCc1cc(Cc2ccccc2)ccc1O`: the Toxicity with Schistosoma mansoni [1], with Schistosoma mansoni [2] and in the experiment with Schistosoma mansoni [3] was 0 throughout.

On to `O=C(CSc1ccc2nnc(-c3cccc(F)c3)n2n1)Nc1ccc2c(c1)OCO2`, for which the Toxicity in the experiment on Schistosoma mansoni [1], with Schistosoma mansoni [2] and in the experiment on Schistosoma mansoni [3] was 0 throughout.

With `COc1ccc(N2CCN(C(CNC(=O)C3CCCCC3)c3ccc4c(c3)OCO4)CC2)cc1` (centres undefined), the Toxicity in the experiment on Schistosoma mansoni [1], with Schistosoma mansoni [2] and in the experiment on Schistosoma mansoni [3] was 0 throughout.

As for `CCOC(=O)c1cnc2ccc(CC)cc2c1O`, the Toxicity in the experiment on Schistosoma mansoni [1], in the experiment on Schistosoma mansoni [2] and with Schistosoma mansoni [3] was 0 in each case.

As for `OC(CNCC1CCCO1)Cn1c2ccc(Cl)cc2c2cc(Cl)ccc21` (centres undefined), the Toxicity with Schistosoma mansoni [1], in the experiment on Schistosoma mansoni [2] and with Schistosoma mansoni [3] was 0 throughout.

For `CCOC(=O)c1c(C)n(-c2ccccc2)c2ccc(OC(=O)c3cc(OC)c(OC)c(OC)c3)cc12`, the Toxicity in the experiment with Schistosoma mansoni [1], with Schistosoma mansoni [2] and in the experiment on Schistosoma mansoni [3] was 0 in each case.

For `COc1ccccc1CNC(=O)CCn1c(=O)[nH]c2ccsc2c1=O`, the Toxicity in the experiment with Schistosoma mansoni [1], with Schistosoma mansoni [2] and in the experiment with Schistosoma mansoni [3] was 0 throughout.

For the compound `COc1ccc2c(c1OC)C(=O)N1c3ccccc3N=C(c3ccc(C)cc3)CC21` (centres undefined), the Toxicity in the experiment on Schistosoma mansoni [1], with Schistosoma mansoni [2] and in the experiment with Schistosoma mansoni [3] was 0 each time.

Turning to `Cc1ccc(Cn2c(N3CCC(C(=O)NCc4cccs4)CC3)nc3ccccc32)cc1`, the Toxicity in the experiment with Schistosoma mansoni [1], in the experiment on Schistosoma mansoni [2] and with Schistosoma mansoni [3] was 0 throughout.

Consider `O=C(NCc1ccco1)C1CCN(S(=O)(=O)c2ccc(Br)cc2)CC1`, for which the Toxicity in the experiment with Schistosoma mansoni [1], in the experiment with Schistosoma mansoni [2] and in the experiment with Schistosoma mansoni [3] was 0 in each case.

Regarding `COc1cc2cc(C(=O)Nc3ccccc3)c(N)nc2cc1OC`, the Toxicity is on record as 0 with Schistosoma mansoni [1], 0 with Schistosoma mansoni [2] and 2 with Schistosoma mansoni [3].

Regarding `COc1ccc(-c2cc3c(nn2)-c2ccccc2C3=O)cc1`, the Toxicity in the experiment with Schistosoma mansoni [1], with Schistosoma mansoni [2] and with Schistosoma mansoni [3] was 0 each time.

As to `COc1ccc(CCNC(=O)c2cc(S(=O)(=O)N3CC(C)CC(C)C3)ccc2Sc2ccc(F)cc2)cc1OC` (centres undefined), the Toxicity in the experiment with Schistosoma mansoni [1], with Schistosoma mansoni [2] and in the experiment with Schistosoma mansoni [3] was 4 in each case.

Take `CCCCC(O)(c1ccc(Cl)cc1)C(CN1CCOCC1)c1ccc(Cl)cc1.Cl` (centres undefined): the values for the Toxicity with Schistosoma mansoni [1], with Schistosoma mansoni [2] and in the experiment with Schistosoma mansoni [3] were 0, 0 and 4, respectively.

In the case of `C=C(C)CCC(C)N1CCC(N2CCC(C(=O)NCCc3ccccc3)CC2)CC1` (centres undefined), the Toxicity in the experiment with Schistosoma mansoni [1] turned out to be 0; with Schistosoma mansoni [2], 0; with Schistosoma mansoni [3] it was 2.

`CN1C=C(c2ccc3ccccc3n2)C(c2c[nH]c3ccccc23)c2ccccc21` (centres undefined): the Toxicity in the experiment with Schistosoma mansoni [1], with Schistosoma mansoni [2] and in the experiment with Schistosoma mansoni [3] was 0 in each case.

`CC(O)(c1ccc(Cl)cc1)C(CN1CCCCC1)c1ccccc1.Cl` (centres undefined): the Toxicity in the experiment with Schistosoma mansoni [1], in the experiment with Schistosoma mansoni [2] and with Schistosoma mansoni [3] was 0 each time.

For the compound `COc1cc(C(=O)Nc2ccc(-c3nc4ccccc4[nH]3)cc2)cc(OC)c1OC`, the Toxicity in the experiment on Schistosoma mansoni [1], with Schistosoma mansoni [2] and with Schistosoma mansoni [3] was 0 each time.
